These results are taken from PubChem BioAssay AID328 (DTP/NCI, 2004).

Toxic doses and inconclusive results are not listed.

For this experiment, the system named is BDF1 mice, P388 leukemia ip, median survival T/C. Kind of experiment: NCI In Vivo Anticancer Drug Screen. Data for tumor model P388 Leukemia (intraperitoneal) in B6D2F1 (BDF1) mice. The note with it: endpoint: median survival time, higher = longer survival. A digest of the protocol:
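Mice carrying the transplantable tumour receive compound or vehicle. Survival is followed in each arm, and the treated measure is divided by the vehicle measure.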

Where [1] appears, read: dose: 40.0 mg/kg/injection, schedule: Q01DX009 (ip), vehicle: saline.
[2] abbreviates: dose: 40.0 mg/kg/injection, schedule: Q04DX003 (ip), vehicle: saline.
[3] abbreviates: dose: 80.0 mg/kg/injection, schedule: Q01DX009 (ip), vehicle: saline.
The mark [4] stands for this setting: dose: 80.0 mg/kg/injection, schedule: Q04DX003 (ip), vehicle: saline.
Setting [5] is: dose: 50.0 mg/kg/injection, schedule: Q01DX009 (ip), vehicle: saline with Tween-80.
Setting [6] is: dose: 100.0 mg/kg/injection, schedule: Q01DX009 (ip), vehicle: saline with Tween-80.
The mark [7] stands for this setting: dose: 200.0 mg/kg/injection, schedule: Q01DX009 (ip), vehicle: saline with Tween-80.
Setting [8] is: dose: 100.0 mg/kg/injection, schedule: Q04DX003 (ip), vehicle: saline with Tween-80.
Setting [9] is: dose: 200.0 mg/kg/injection, schedule: Q04DX003 (ip), vehicle: saline with Tween-80.
Where [10] appears, read: dose: 400.0 mg/kg/injection, schedule: Q01DX009 (ip), vehicle: saline with Tween-80.

As for `COc1cc2c(ccc3c4cc(OC)c(OC)cc4c[n+](C)c23)cc1O`, the T/C is 165 % of control (dose: 12.5 mg/kg/injection, schedule: Q01DX009 (ip), vehicle: Klucel (hydroxypropylcellulose) (HPC)); 173 % of control (dose: 25.0 mg/kg/injection, schedule: Q01DX009 (ip), vehicle: Klucel (hydroxypropylcellulose) (HPC)); 190 % of control (dose: 25.0 mg/kg/injection, schedule: Q01DX010 (ip), vehicle: saline); 190 % of control under setting [1]; 190 % of control under setting [2]; 219 % of control (dose: 50.0 mg/kg/injection, schedule: Q01DX009 (ip), vehicle: Klucel (hydroxypropylcellulose) (HPC)). For the same compound, the T/C is 210 % of control (dose: 50.0 mg/kg/injection, schedule: Q01DX010 (ip), vehicle: saline); 210 % of control under setting [3]; 180 % of control under setting [4]; 230 % of control (dose: 100.0 mg/kg/injection, schedule: Q01DX009 (ip), vehicle: Klucel (hydroxypropylcellulose) (HPC)); 265 % of control (dose: 100.0 mg/kg/injection, schedule: Q01DX010 (ip), vehicle: saline); 270 % of control (dose: 160.0 mg/kg/injection, schedule: Q01DX009 (ip), vehicle: saline). The T/C runs as follows: (dose: 160.0 mg/kg/injection, schedule: Q04DX003 (ip), vehicle: saline) 215 % of control; (dose: 320.0 mg/kg/injection, schedule: Q01DX009 (ip), vehicle: saline) 205 % of control; (dose: 320.0 mg/kg/injection, schedule: Q04DX003 (ip), vehicle: saline) 270 % of control.
Take `CC(=O)O[C@H]1[C@H]2O[C@]23[C@@H]2CC[C@@H]4C[C@@H](O)CC[C@]4(C)[C@H]2CC[C@]3(C)[C@H]1c1ccc(=O)oc1`: the T/C (dose: 3.75 mg/kg/injection, schedule: Q01DX009 (ip), vehicle: Klucel (hydroxypropylcellulose) (HPC)) is 100 % of control; the T/C (dose: 7.5 mg/kg/injection, schedule: Q01DX009 (ip), vehicle: Klucel (hydroxypropylcellulose) (HPC)) is 104 % of control; the T/C (dose: 10.0 mg/kg/injection, schedule: Q01DX010 (ip), vehicle: carboxymethylcellulose (CMC)) is 90 % of control; the T/C (dose: 20.0 mg/kg/injection, schedule: Q01DX010 (ip), vehicle: carboxymethylcellulose (CMC)) is 90 % of control.
For the compound `CCCCN1C/C(=C\c2ccc(Br)cc2)C(=O)/C(=C/c2ccc(Br)cc2)C1`, the T/C reads like this: (dose: 6.25 mg/kg/injection, schedule: Q01DX005 (ip), vehicle: saline with Tween-80) 91 % of control; (dose: 12.5 mg/kg/injection, schedule: Q01DX005 (ip), vehicle: saline with Tween-80) 95 % of control.
In the case of `COc1cc(OC)c(OC)cc1/C=C/c1cc[n+](C)c2ccccc12`, the T/C (dose: 6.25 mg/kg/injection, schedule: Q01DX009 (ip), vehicle: saline) was 111 % of control; the T/C (dose: 12.5 mg/kg/injection, schedule: Q01DX009 (ip), vehicle: saline) is 119 % of control; the T/C (dose: 16.0 mg/kg/injection, schedule: Q01DX009 (ip), vehicle: saline) is 111 % of control; the T/C (dose: 35.0 mg/kg/injection, schedule: Q01DX009 (ip), vehicle: saline) is 119 % of control.
For the compound `O=C1c2ccccc2C(=O)N1CC#CCN1C(=O)c2ccccc2C1=O`, the T/C (dose: 75.0 mg/kg/injection, schedule: Q01DX009 (ip), vehicle: saline with Tween-80) is 115 % of control; the T/C (dose: 150.0 mg/kg/injection, schedule: Q01DX009 (ip), vehicle: saline with Tween-80) was 90 % of control; the T/C (dose: 300.0 mg/kg/injection, schedule: Q01DX009 (ip), vehicle: saline with Tween-80) was 97 % of control.
On to `CCN(CC)CCOc1ccccc1C`, for which the T/C is, setting by setting: (dose: 20.0 mg/kg/injection, schedule: Q01DX009 (ip), vehicle: saline) 107 % of control; (dose: 20.0 mg/kg/injection, schedule: Q04DX003 (ip), vehicle: saline) 100 % of control; under setting [1], 100 % of control; under setting [2], 91 % of control; under setting [3], 89 % of control; under setting [4], 91 % of control.
As for `S=c1[nH]c2ccccc2s1.[Zn+2]`, the T/C runs as follows: under setting [5], 98 % of control; under setting [6], 100 % of control; under setting [7], 99 % of control.
As for `CCCCCCCCCCCCCCCCCCCC`, the T/C by setting is: (dose: 6.25 mg/kg/injection, schedule: Q04DX003 (ip), vehicle: other) 100 % of control; (dose: 12.5 mg/kg/injection, schedule: Q04DX003 (ip), vehicle: other) 100 % of control; (dose: 25.0 mg/kg/injection, schedule: Q04DX003 (ip), vehicle: other) 100 % of control; (dose: 50.0 mg/kg/injection, schedule: Q01DX009 (ip), vehicle: other) 100 % of control; (dose: 100.0 mg/kg/injection, schedule: Q01DX009 (ip), vehicle: other) 100 % of control.
As to `CC(=O)C[n+]1ccccc1C(c1ccccc1)c1ccccc1`, the T/C (dose: 12.5 mg/kg/injection, schedule: Q01DX005 (ip), vehicle: saline) is 101 % of control; the T/C (dose: 25.0 mg/kg/injection, schedule: Q01DX005 (ip), vehicle: saline) is 92 % of control; the T/C (dose: 50.0 mg/kg/injection, schedule: Q01DX005 (ip), vehicle: saline) is 101 % of control.
`CCN(CC)CCNc1ncnc2c1cnn2-c1ccc(Cl)cc1`: the T/C under setting [8] is 109 % of control and the T/C under setting [9] is 109 % of control.
Take `CCOP(=S)(OCC)Oc1cnn(C)c(=S)c1Cl`: the T/C was 98 % of control (dose: 50.0 mg/kg/injection, schedule: Q01DX005 (ip), vehicle: saline with Tween-80); 101 % of control (dose: 100.0 mg/kg/injection, schedule: Q01DX005 (ip), vehicle: saline with Tween-80); 108 % of control (dose: 200.0 mg/kg/injection, schedule: Q01DX005 (ip), vehicle: saline with Tween-80).
`CN(C)c1ccc(/C=C2\SC(=S)N(Cc3ccco3)C2=O)cc1`: the T/C is, setting by setting: under setting [5], 92 % of control; under setting [6], 91 % of control; under setting [7], 88 % of control.
`CC(=O)OCC(=O)[C@@]1(O)CC[C@H]2[C@@H]3C[C@H](C)C4=CC(=O)CC[C@]4(C)[C@H]3[C@@H](O)C[C@@]21C`: under setting [10], the T/C was 90 % of control.
Take `CC1OC(Oc2c(-c3ccc(O)c(O)c3)oc3cc(O)cc(O)c3c2=O)C(O)C(O)C1O` (centres undefined): the T/C runs as follows: under setting [6], 109 % of control; under setting [8], 113 % of control; under setting [7], 104 % of control; under setting [9], 109 % of control; (dose: 264.0 mg/kg/injection, schedule: Q04DX003 (ip), vehicle: saline with Tween-80) 104 % of control; under setting [10], 118 % of control. Further, the T/C reads like this: (dose: 400.0 mg/kg/injection, schedule: Q04DX003 (ip), vehicle: saline with Tween-80) 104 % of control; (dose: 600.0 mg/kg/injection, schedule: Q04DX003 (ip), vehicle: saline with Tween-80) 104 % of control.
Take `CC1=CC(=O)[C@@H](O)[C@]2(C)[C@H]3[C@@]4(O)OC[C@]35[C@H]([C@@H](C)[C@H]4O)[C@@H](OC(=O)c3ccccc3)C(=O)O[C@@H]5C[C@@H]12`: the T/C by setting is: (dose: 0.03 mg/kg/injection, schedule: Q01DX009 (ip), vehicle: saline with Tween-80) 121 % of control; (dose: 0.06 mg/kg/injection, schedule: Q01DX009 (ip), vehicle: saline with Tween-80) 118 % of control; (dose: 0.12 mg/kg/injection, schedule: Q01DX009 (ip), vehicle: saline with Tween-80) 122 % of control.
For `CC1CCCCN1CCCO` (centres undefined), the T/C is 104 % of control (dose: 25.0 mg/kg/injection, schedule: Q01DX009 (ip), vehicle: saline); 108 % of control (dose: 50.0 mg/kg/injection, schedule: Q01DX009 (ip), vehicle: saline); 92 % of control (dose: 50.0 mg/kg/injection, schedule: Q04DX003 (ip), vehicle: saline); 112 % of control (dose: 100.0 mg/kg/injection, schedule: Q01DX009 (ip), vehicle: saline); 96 % of control (dose: 100.0 mg/kg/injection, schedule: Q04DX003 (ip), vehicle: saline).
In the case of `CCOC(=O)C1(C)C=C(Nc2ccc(OC)cc2)C(=O)N1c1ccc(OC)cc1` (centres undefined), the T/C is 104 % of control (dose: 6.25 mg/kg/injection, schedule: Q01DX009 (ip), vehicle: saline with Tween-80); 100 % of control (dose: 12.5 mg/kg/injection, schedule: Q01DX009 (ip), vehicle: saline with Tween-80); 100 % of control (dose: 25.0 mg/kg/injection, schedule: Q01DX009 (ip), vehicle: saline with Tween-80); 95 % of control under setting [5].
